Data published in US6440471B2, “Plant proanthocyanidin extracts” (JLB, Inc., priority 1999, dated 2002).
“Also recorded” adds a separate entry of the source.

System: adhesion of bacteria
Assay: Anti-adhesion assay (not further specified)
Type: cell-based
From the text: Further, quercetin and myricetin, which both share the catechin or epicatechin-like nucleus with leucocyanins but have R^2=H or OH, have been tested in the anti-adhesion assay and show no activity. […] Further, as described previously herein, one of the anti-adhesion assays described herein compares the ability of a substance to inhibit binding relative to mannose inhibition of such adhesion, and it is therefore believed that a carbohydrate moiety is involved in conferring anti-adhesion activity.

Compound	anti-adhesion activity
O=c1c(O)c(-c2cc(O)c(O)c(O)c2)oc2cc(O)cc(O)c12 [myricetin]	no activity
O=c1c(O)c(-c2ccc(O)c(O)c2)oc2cc(O)cc(O)c12 [quercetin]	no activity
myricetin-3-pyranoside	some anti-adhesion activity; also recorded: does have anti-adhesion activity
